In the test the target is wild-type human cardiac sodium channel, hNav1.5 (Homo sapiens, UniProt Q14524). The test is described as follows: Late INa screening assay (late sodium current, PatchXpress whole cell patch clamp). Type of test: cell-based. Particulars: compound at 10 μM; read-out: Late INa % blk. A general note: The patch-clamp technique gives a direct electrical read-out from membranes.
wild-type human cardiac sodium channel, hNav1.5, sequence (Q14524 whole entry): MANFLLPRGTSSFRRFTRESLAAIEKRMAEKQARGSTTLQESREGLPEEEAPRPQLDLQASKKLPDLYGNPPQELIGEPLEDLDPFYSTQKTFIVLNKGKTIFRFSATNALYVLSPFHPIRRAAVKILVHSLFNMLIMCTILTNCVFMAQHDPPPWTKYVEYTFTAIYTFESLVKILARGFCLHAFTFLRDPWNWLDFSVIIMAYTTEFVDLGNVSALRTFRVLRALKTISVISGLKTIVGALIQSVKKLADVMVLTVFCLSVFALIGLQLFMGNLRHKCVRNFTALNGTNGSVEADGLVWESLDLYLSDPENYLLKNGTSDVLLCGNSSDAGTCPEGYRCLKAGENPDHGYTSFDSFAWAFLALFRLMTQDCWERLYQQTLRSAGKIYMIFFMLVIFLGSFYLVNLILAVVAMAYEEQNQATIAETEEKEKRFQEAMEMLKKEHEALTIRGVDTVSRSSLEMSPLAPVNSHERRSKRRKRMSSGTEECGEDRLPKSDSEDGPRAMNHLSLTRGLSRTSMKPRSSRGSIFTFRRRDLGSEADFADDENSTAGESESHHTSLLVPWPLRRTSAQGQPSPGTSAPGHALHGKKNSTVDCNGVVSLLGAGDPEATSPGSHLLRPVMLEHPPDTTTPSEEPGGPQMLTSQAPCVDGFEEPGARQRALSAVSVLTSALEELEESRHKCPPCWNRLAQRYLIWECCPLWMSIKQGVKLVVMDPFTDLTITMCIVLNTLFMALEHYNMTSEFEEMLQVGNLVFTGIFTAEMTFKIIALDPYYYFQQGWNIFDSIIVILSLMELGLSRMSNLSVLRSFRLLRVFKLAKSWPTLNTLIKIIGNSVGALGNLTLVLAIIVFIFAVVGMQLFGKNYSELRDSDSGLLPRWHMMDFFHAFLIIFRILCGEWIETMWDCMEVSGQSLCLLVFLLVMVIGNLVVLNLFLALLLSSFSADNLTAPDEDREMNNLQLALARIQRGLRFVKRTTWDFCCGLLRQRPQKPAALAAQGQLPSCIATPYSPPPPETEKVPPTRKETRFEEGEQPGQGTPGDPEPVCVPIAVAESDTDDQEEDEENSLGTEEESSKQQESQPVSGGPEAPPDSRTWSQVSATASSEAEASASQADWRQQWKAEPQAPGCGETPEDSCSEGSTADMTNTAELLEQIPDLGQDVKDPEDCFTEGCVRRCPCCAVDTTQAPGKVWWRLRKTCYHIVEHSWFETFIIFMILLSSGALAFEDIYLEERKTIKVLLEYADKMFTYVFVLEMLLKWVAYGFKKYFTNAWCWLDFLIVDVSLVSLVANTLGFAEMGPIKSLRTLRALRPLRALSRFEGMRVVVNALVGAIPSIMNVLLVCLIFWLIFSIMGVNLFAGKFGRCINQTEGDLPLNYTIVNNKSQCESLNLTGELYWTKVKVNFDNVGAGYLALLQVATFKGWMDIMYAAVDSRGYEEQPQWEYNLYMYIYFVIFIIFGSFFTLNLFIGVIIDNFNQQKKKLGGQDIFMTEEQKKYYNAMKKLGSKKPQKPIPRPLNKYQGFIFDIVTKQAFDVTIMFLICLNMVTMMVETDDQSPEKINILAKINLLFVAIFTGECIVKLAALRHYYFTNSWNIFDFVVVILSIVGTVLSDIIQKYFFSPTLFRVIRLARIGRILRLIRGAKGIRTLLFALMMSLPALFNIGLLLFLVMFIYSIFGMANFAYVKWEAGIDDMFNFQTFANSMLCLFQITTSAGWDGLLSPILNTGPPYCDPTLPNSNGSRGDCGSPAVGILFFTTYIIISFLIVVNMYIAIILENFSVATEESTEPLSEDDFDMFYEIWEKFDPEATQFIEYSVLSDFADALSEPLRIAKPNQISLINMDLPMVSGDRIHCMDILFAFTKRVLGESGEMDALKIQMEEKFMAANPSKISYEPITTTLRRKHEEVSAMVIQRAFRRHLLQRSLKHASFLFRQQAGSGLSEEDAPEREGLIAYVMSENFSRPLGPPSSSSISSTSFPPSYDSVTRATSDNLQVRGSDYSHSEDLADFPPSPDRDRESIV

Turning to `CCOC(=O)c1ccc(COc2ccccc2C2C(C(=O)OCc3ccccc3)=C(C)Nc3nnnn32)cc1` (stereo not drawn) [PT-377, benzyl 7-(2-(4-(ethoxycarbonyl)benzyloxy)phenyl)-5-methyl-4,7-dihydrotetrazolo[1,5-a]pyrimidine-6-carboxylate], the inhibition at 10 µM turned out to be 30.3%.
The value for `COc1ccc(C2C(C(=O)OCc3ccccc3)=C(C)Nc3nnnn32)c(OCc2ccccc2)c1` (stereo not drawn) [PT-380, benzyl 7-(2-(benzyloxy)-4-methoxyphenyl)-5-methyl-4,7-dihydrotetrazolo[1,5-a]pyrimidine-6-carboxylate] was 70.9%; that for `CC1=C(C(=O)OCc2ccccc2)C(c2cc(Br)ccc2OCc2ccccc2)n2nnnc2N1` (stereo not drawn) [PT-381, benzyl 7-(2-(benzyloxy)-5-bromophenyl)-5-methyl-4,7-dihydrotetrazolo[1,5-a]pyrimidine-6-carboxylate] was 43.7%.
In the case of `COc1cccc(OCc2ccccc2)c1C1C(C(=O)OCc2ccccc2)=C(C)Nc2nnnn21` (stereo not drawn) [PT-382, benzyl 7-(2-(benzyloxy)-6-methoxyphenyl)-5-methyl-4,7-dihydrotetrazolo[1,5-a]pyrimidine-6-carboxylate], the inhibition at 10 µM worked out at 13.9%.
Next, `CC1=C(C(=O)OCc2ccccc2)C(c2ccccc2OCc2ccccc2)n2nnnc2N1` (stereo not drawn) [PT-383, benzyl 7-(2-(benzyloxy)phenyl)-5-methyl-4,7-dihydrotetrazolo[1,5-a]pyrimidine-6-carboxylate]: 79.5%; `CC1=C(C(=O)OCc2ccccc2)C(c2ccc(C(F)(F)F)cc2C(F)(F)F)n2nnnc2N1` (stereo not drawn) [PT-384, benzyl 7-(2,4-bis(trifluoromethyl)phenyl)-5-methyl-4,7-dihydrotetrazolo[1,5-a]pyrimidine-6-carboxylate]: 29.4%; `COc1ccc(C2C(C(=O)OCc3ccccc3)=C(C)Nc3nnnn32)c(OC)c1` (stereo not drawn) [PT-385, benzyl 7-(2,4-dimethoxyphenyl)-5-methyl-4,7-dihydrotetrazolo[1,5-a]pyrimidine-6-carboxylate]: 56.5%.
Regarding `CC1=C(C(=O)OCc2ccccc2)C(c2ccccc2Br)n2nnnc2N1` (stereo not drawn) [PT-387, benzyl 7-(2-bromophenyl)-5-methyl-4,7-dihydrotetrazolo[1,5-a]pyrimidine-6-carboxylate], the inhibition at 10 µM was determined as 84.8%.
The value for `CC1=C(C(=O)OCc2ccccc2)C(c2ccccc2-c2ccccc2C(N)=O)n2nnnc2N1` (stereo not drawn) [PT-388, benzyl 7-(2′-carbamoylbiphenyl-2-yl)-5-methyl-4,7-dihydrotetrazolo[1,5-a]pyrimidine-6-carboxylate] was 2.7%; that for `CC1=C(C(=O)OCc2ccccc2)C(c2ccccc2-c2ccccc2C#N)n2nnnc2N1` (stereo not drawn) [PT-390, benzyl 7-(2′-cyanobiphenyl-2-yl)-5-methyl-4,7-dihydrotetrazolo[1,5-a]pyrimidine-6-carboxylate] was 20%; that for `CC1=C(C(=O)OCc2ccccc2)C(c2ccccc2F)n2nnnc2N1` (stereo not drawn) [PT-391, benzyl 7-(2-fluorophenyl)-5-methyl-4,7-dihydrotetrazolo[1,5-a]pyrimidine-6-carboxylate] was 32.4%.
As for `COc1cc(-c2nnn[nH]2)ccc1C1C(C(=O)OCc2ccccc2)=C(C)Nc2nnnn21` (stereo not drawn) [PT-393, benzyl 7-(2-methoxy-4-(1H-tetrazol-5-yl)phenyl)-5-methyl-4,7-dihydrotetrazolo[1,5-a]pyrimidine-6-carboxylate], the inhibition at 10 µM was found to be 9.8%.
As to `COc1cc([N+](=O)[O-])ccc1C1C(C(=O)OCc2ccccc2)=C(C)Nc2nnnn21` (stereo not drawn) [PT-395, benzyl 7-(2-methoxy-4-nitrophenyl)-5-methyl-4,7-dihydrotetrazolo[1,5-a]pyrimidine-6-carboxylate], the inhibition at 10 µM amounted to 48.7%.
The value for `CC1=C(C(=O)OCc2ccccc2)C(c2cc(-c3ccsc3)cs2)n2nnnc2N1` (stereo not drawn) [PT-398, benzyl 7-(3,3′-bithiophen-5-yl)-5-methyl-4,7-dihydrotetrazolo[1,5-a]pyrimidine-6-carboxylate] was 18.3%; that for `CC1=C(C(=O)OCc2ccccc2)C(c2ccccc2-c2cccc(N)c2)n2nnnc2N1` (stereo not drawn) [PT-399, benzyl 7-(3′-aminobiphenyl-2-yl)-5-methyl-4,7-dihydrotetrazolo[1,5-a]pyrimidine-6-carboxylate] was 66.2%.
For the compound `CC1=C(C(=O)OCc2ccccc2)C(c2occc2Br)n2nnnc2N1` (stereo not drawn) [PT-400, benzyl 7-(3-bromofuran-2-yl)-5-methyl-4,7-dihydrotetrazolo[1,5-a]pyrimidine-6-carboxylate], the inhibition at 10 µM turned out to be 53.2%.
Regarding `CC1=C(C(=O)OCc2ccccc2)C(c2ccc(-n3ccnc3)cc2)n2nnnc2N1` (stereo not drawn) [PT-402, benzyl 7-(4-(1H-imidazol-1-yl)phenyl)-5-methyl-4,7-dihydrotetrazolo[1,5-a]pyrimidine-6-carboxylate], the inhibition at 10 µM came to 18.3%.
As to `CC1=C(C(=O)OCc2ccccc2)C(c2ccc(-c3nnn[nH]3)cc2)n2nnnc2N1` (stereo not drawn) [PT-403, benzyl 7-(4-(1H-tetrazol-5-yl)phenyl)-5-methyl-4,7-dihydrotetrazolo[1,5-a]pyrimidine-6-carboxylate], the inhibition at 10 µM is 9.7%.
The value for `CC1=C(C(=O)OCc2ccccc2)C(c2ccccc2-c2ccc(C(C)O)cc2)n2nnnc2N1` (stereo not drawn) [PT-404, benzyl 7-(4′-(1-hydroxyethyl)biphenyl-2-yl)-5-methyl-4,7-dihydrotetrazolo[1,5-a]pyrimidine-6-carboxylate] was 80.9%; that for `CC1=C(C(=O)OCc2ccccc2)C(c2ccc(OCCN(C)C)cc2)n2nnnc2N1` (stereo not drawn) [PT-405, benzyl 7-(4-(2-(dimethylamino)ethoxy)phenyl)-5-methyl-4,7-dihydrotetrazolo[1,5-a]pyrimidine-6-carboxylate] was 18.4%.
Next, `COCCOc1ccc(C2C(C(=O)OCc3ccccc3)=C(C)Nc3nnnn32)cc1` (stereo not drawn) [PT-406, benzyl 7-(4-(2-methoxyethoxy)phenyl)-5-methyl-4,7-dihydrotetrazolo[1,5-a]pyrimidine-6-carboxylate]: 20.3%; `CC1=C(C(=O)OCc2ccccc2)C(c2ccccc2-c2ccc(OCc3ccccc3)cc2)n2nnnc2N1` (stereo not drawn) [PT-407, benzyl 7-(4′-(benzyloxy)biphenyl-2-yl)-5-methyl-4,7-dihydrotetrazolo[1,5-a]pyrimidine-6-carboxylate]: 10.6%.
In the case of `COc1cc(N(C)C)ccc1C1C(C(=O)OCc2ccccc2)=C(C)Nc2nnnn21` (stereo not drawn) [PT-408, benzyl 7-(4-(dimethylamino)-2-methoxyphenyl)-5-methyl-4,7-dihydrotetrazolo[1,5-a]pyrimidine-6-carboxylate], the inhibition at 10 µM was 30.4%.
`CC1=C(C(=O)OCc2ccccc2)C(c2ccc(N(C)C)cc2)n2nnnc2N1` (stereo not drawn) [PT-410, benzyl 7-(4-(dimethylamino)phenyl)-5-methyl-4,7-dihydrotetrazolo[1,5-a]pyrimidine-6-carboxylate]: the inhibition at 10 µM is 11.4%.
Next, `COC(=O)c1ccc(C2C(C(=O)OCc3ccccc3)=C(C)Nc3nnnn32)c([N+](=O)[O-])c1` (stereo not drawn) [PT-411, benzyl 7-(4-(methoxycarbonyl)-2-nitrophenyl)-5-methyl-4,7-dihydrotetrazolo[1,5-a]pyrimidine-6-carboxylate]: 11.4%.
The value for `COC(=O)c1ccc(C2C(C(=O)OCc3ccccc3)=C(C)Nc3nnnn32)cc1` (stereo not drawn) [PT-412, benzyl 7-(4-(methoxycarbonyl)phenyl)-5-methyl-4,7-dihydrotetrazolo[1,5-a]pyrimidine-6-carboxylate] was 27.6%; that for `CC1=C(C(=O)OCc2ccccc2)C(c2ccc(Br)cc2F)n2nnnc2N1` (stereo not drawn) [PT-416, benzyl 7-(4-bromo-2-fluorophenyl)-5-methyl-4,7-dihydrotetrazolo[1,5-a]pyrimidine-6-carboxylate] was 25.6%.
As for `COc1cc(C#N)ccc1C1C(C(=O)OCc2ccccc2)=C(C)Nc2nnnn21` (stereo not drawn) [PT-417, benzyl 7-(4-cyano-2-methoxyphenyl)-5-methyl-4,7-dihydrotetrazolo[1,5-a]pyrimidine-6-carboxylate], the inhibition at 10 µM was found to be 41.3%.
Next, `CC1=C(C(=O)OCc2ccccc2)C(c2ccc(C#N)cc2)n2nnnc2N1` (stereo not drawn) [PT-418, benzyl 7-(4-cyanophenyl)-5-methyl-4,7-dihydrotetrazolo[1,5-a]pyrimidine-6-carboxylate]: 42.7%; `COc1ccc(C2C(C(=O)OCc3ccccc3)=C(C)Nc3nnnn32)c([N+](=O)[O-])c1` (stereo not drawn) [PT-419, benzyl 7-(4-methoxy-2-nitrophenyl)-5-methyl-4,7-dihydrotetrazolo[1,5-a]pyrimidine-6-carboxylate]: 44.2%.
Consider `COc1ccc(-c2ccccc2C2C(C(=O)OCc3ccccc3)=C(C)Nc3nnnn32)cc1` (stereo not drawn) [PT-420, benzyl 7-(4′-methoxybiphenyl-2-yl)-5-methyl-4,7-dihydrotetrazolo[1,5-a]pyrimidine-6-carboxylate], for which the inhibition at 10 µM turned out to be 75.3%.
In the case of `COc1ccc(C2C(C(=O)OCc3ccccc3)=C(C)Nc3nnnn32)c2ccccc12` (stereo not drawn) [PT-421, benzyl 7-(4-methoxynaphthalen-1-yl)-5-methyl-4,7-dihydrotetrazolo[1,5-a]pyrimidine-6-carboxylate], the inhibition at 10 µM came to 23.5%.
The value for `CCn1c2ccccc2c2cc(C3C(C(=O)OCc4ccccc4)=C(C)Nc4nnnn43)ccc21` (stereo not drawn) [PT-422, benzyl 7-(9-ethyl-9H-carbazol-3-yl)-5-methyl-4,7-dihydrotetrazolo[1,5-a]pyrimidine-6-carboxylate] was 35.2%.
For the compound `CCOC(=O)C1=C(C)NC(C)=C(C(=O)OCC)C1c1ccc(OC)cc1OC` [PT-429, diethyl 4-(2,4-dimethoxyphenyl)-2,6-dimethyl-1,4-dihydropyridine-3,5-dicarboxylate], the inhibition at 10 µM worked out at 14.9%.
The value for `CCOC(=O)C1=C(C)NC(C)=C(C(=O)OCC)C1c1ccc(OC)cc1C#N` [PT-431, diethyl 4-(2-cyano-4-methoxyphenyl)-2,6-dimethyl-1,4-dihydropyridine-3,5-dicarboxylate] was 56.1%; that for `CCOC(=O)C1=C(C)NC(C)=C(C(=O)OCC)C1c1ccc(OC)cc1F` [PT-432, diethyl 4-(2-fluoro-4-methoxyphenyl)-2,6-dimethyl-1,4-dihydropyridine-3,5-dicarboxylate] was 56.9%.
